In US7973162B2, “Modulators of muscarinic receptors” (Vertex Pharmaceuticals Incorporated, priority 2007, dated 2011):

Assays:
Assay type in all cases: cell-based
[1] = target: T1, M1 muscarinic receptor (Homo sapiens, UniProt P11229); test: Functional mobilization of intracellular calcium (FLIPR), M1-CHO cells; conditions: for EC50: CHO cells expressing M1, calcium mobilization
T1 construct: expressed in transfected cells; host or cells: CHO (M1-CHO)
T1 sequence (P11229 1-460): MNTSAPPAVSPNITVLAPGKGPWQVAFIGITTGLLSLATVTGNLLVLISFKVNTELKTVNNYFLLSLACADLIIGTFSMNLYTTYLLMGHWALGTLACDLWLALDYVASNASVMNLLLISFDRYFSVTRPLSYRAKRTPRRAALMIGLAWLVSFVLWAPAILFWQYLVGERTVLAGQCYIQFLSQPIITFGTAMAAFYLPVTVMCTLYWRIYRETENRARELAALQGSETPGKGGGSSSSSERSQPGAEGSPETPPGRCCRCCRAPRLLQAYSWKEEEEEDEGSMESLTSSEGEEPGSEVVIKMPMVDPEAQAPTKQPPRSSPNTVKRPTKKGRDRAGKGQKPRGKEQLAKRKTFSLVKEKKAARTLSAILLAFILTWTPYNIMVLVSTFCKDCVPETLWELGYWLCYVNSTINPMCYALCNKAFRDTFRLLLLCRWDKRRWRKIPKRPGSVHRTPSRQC
Experimental: (§1) Functional Mobilization of Intracellular Calcium to Determine Muscarinic Receptor Activity:
(§2) CHO cells expressing muscarinic receptors (M1 to M5) are grown as monolayers in tissue culture flasks at 37° C. in a humidified atmosphere containing 5% CO2 and passaged every 3-5 days. The growth media is Dulbecco's modified eagles medium (DMEM, Gibco Cat# 12430-054), containing 25 mM Hepes and supplemented with Fetal Bovine Serum (Hyclone, cat #SH30071.03), 0.1 mM of MEM non-essential amino acids (GIBCO, Cat #11140-050), 1 mM MEM Sodium Pyruvate (GIBCO Cat #11360-070) and 100 units/ml of Penicillin G and 100 μg/ml of Streptomycin (GIBCO Cat #15140-122). The recombinant muscarinic receptor cell lines are grown under antibiotic pressure with media containing 25 μg/ml zeocin and 500 μg/ml G418 (M1-CHO), 4 μg/ml puromycin, 50 μg/ml zeocin and 2.5 μg/ml blasticidin (M2 and M4-CHO) or 50 μg/ml zeocin and 4 μg/ml puromycin (M3 and M5-CHO).
(§3) Cells are harvested at 80-90% confluence using Versene (GIBCO Cat #15040-066), collected by centrifugation and seeded 18-24 hrs prior to running the calcium assay at a density of 5,000-10,000 cells/well in […], clear-bottomed 384-well plates (BD Biocoat, poly-D-lysine, Cat#356663). The day of the experiment, the cells are washed with a plate washer (Bioteck Instruments, ELX 405) using bath1 buffer (140-mM NaCl, 4.5-mM KCl, 2-mM CaCl2, 1-mM MgCl2, 10-mM Hepes-Na, 10-mM Glucose, pH 7.4, with NaOH) containing 1 mM Probenecid. Next, the calcium dye Fluo-3 (25 μl/well of Fluo-3 AM at 4 μM, Molecular Probes F-1241, in Bath 1 buffer containing 1 mM Probenecid) is added to the 25 μl of Bath 1 remaining in each well after the plate wash and the dye is loaded at 37° C. in the tissue culture incubator for 60-90 min. The fluorescent dye is removed using the plate washer with Bath 1 containing 1 mM Probenecid, leaving 25 μl/well of this solution after the wash. Alternatively, cells can be loaded with the calcium indicator from Molecular Devices (Calcium 3 Assay Reagents, Cat #R7181) adding 5 μl of a 5× solution dye in Bath 1 containing 1 mM Probenecid (10 ml per dye flask cat #R7182 to generate a solution 20×) to 20 μl of the same buffer. After loading for 60 min, the experiment can be run without having to remove the dye.
(§4) Compounds are prepared at a 2× fold concentration in a 96-well plate (round bottom, Costar Corning cat #3656), by reconstituting the pre-spotted compounds in bath 1 containing 1 mM probenecid. The final concentration DMSO is 0.5%, and the amount of DMSO is normalized across the assay plate. To determine an agonist action of the compounds on muscarinic receptors, the reconstituted compounds are added (25 μl compound/well) to the cell assay plate (containing 25 μl/well) using the multi-channel robotic system of the FLIPR 3 Instrument (Molecular Devices, Sunnyvale, Calif.). To determine a functional inhibitory action of the compounds on muscarinic receptors, the reconstituted compounds are added (25 μl compound/well) to the assay plate and pre-incubated for 15 min prior to adding 25 μl of Carbachol at 3× the EC80 for each muscarinic subtype. Alternatively, the compounds can be co-applied simultaneously with the agonist. In both assay modes, the fluorescence is recorded for 60 sec (excitation wavelength is […] and emission wavelength 540 nm) using the FLIPR 3 instrument.
(§5) The potency, efficacy and selectivity of the muscarinic compounds were evaluated by screening the compound activity across the whole family (M1 to M5 cells). Compounds were also screened for activity on other proteins such as other GPCRs and ion channels to determine selectivity on M4 receptors.
(§6) Examples of activities and efficacies of the muscarinic compounds of formulae (I, Ia, and Ib) on modulating M1 and M4 receptors are shown below in Table 3. […]

[2] = target: T2, M2 muscarinic receptor (Homo sapiens, UniProt P08172); test: Functional mobilization of intracellular calcium (FLIPR), M2-CHO cells; conditions: for EC50: CHO cells expressing M2, calcium mobilization
T2 construct: expressed in transfected cells; host or cells: CHO (M2-CHO)
T2 sequence (P08172 1-466): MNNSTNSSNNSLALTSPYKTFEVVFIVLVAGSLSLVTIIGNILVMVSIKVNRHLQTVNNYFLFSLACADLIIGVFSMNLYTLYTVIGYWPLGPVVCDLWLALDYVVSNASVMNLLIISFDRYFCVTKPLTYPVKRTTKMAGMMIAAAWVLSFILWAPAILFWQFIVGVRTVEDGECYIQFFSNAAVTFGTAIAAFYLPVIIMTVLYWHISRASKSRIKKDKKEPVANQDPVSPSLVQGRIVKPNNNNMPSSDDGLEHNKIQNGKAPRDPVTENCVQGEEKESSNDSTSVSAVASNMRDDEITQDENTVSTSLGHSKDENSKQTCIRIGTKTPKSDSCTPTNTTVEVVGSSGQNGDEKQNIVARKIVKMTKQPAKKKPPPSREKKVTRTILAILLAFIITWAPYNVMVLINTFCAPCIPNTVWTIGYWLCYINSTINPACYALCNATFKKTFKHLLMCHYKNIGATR
Experimental: as §1, §2, §3, §4, §5, §6

[3] = target: T3, M3 muscarinic receptor (Homo sapiens, UniProt P20309); test: Functional mobilization of intracellular calcium (FLIPR), M3-CHO cells; conditions: for EC50: CHO cells expressing M3, calcium mobilization
T3 construct: expressed in transfected cells; host or cells: CHO (M3-CHO)
Experimental: as §1, §2, §3, §4, §5, §6

[4] = target: T4, M4 muscarinic receptor (Homo sapiens, UniProt P08173); test: Functional mobilization of intracellular calcium (FLIPR), M4-CHO cells; conditions: for EC50: CHO cells expressing M4, calcium mobilization
T4 construct: expressed in transfected cells; host or cells: CHO (M4-CHO)
T4 sequence (P08173 1-479): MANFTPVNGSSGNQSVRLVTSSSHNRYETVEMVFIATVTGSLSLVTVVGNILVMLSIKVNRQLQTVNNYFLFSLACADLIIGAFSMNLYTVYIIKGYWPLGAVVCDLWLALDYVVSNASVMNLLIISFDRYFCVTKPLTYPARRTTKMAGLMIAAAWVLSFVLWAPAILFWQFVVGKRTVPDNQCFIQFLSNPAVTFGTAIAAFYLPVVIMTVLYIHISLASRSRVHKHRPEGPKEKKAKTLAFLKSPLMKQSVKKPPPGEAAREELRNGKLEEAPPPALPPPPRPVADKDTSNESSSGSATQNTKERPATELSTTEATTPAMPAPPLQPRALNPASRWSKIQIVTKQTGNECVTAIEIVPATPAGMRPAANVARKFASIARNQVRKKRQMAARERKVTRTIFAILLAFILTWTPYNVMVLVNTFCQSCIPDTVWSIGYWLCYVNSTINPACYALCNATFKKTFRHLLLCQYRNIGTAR
Experimental: as §1, §2, §3, §4, §5, §6

[5] = 100% efficacy = maximum response obtained with the Carbachol control

T3 sequence (P20309 whole entry): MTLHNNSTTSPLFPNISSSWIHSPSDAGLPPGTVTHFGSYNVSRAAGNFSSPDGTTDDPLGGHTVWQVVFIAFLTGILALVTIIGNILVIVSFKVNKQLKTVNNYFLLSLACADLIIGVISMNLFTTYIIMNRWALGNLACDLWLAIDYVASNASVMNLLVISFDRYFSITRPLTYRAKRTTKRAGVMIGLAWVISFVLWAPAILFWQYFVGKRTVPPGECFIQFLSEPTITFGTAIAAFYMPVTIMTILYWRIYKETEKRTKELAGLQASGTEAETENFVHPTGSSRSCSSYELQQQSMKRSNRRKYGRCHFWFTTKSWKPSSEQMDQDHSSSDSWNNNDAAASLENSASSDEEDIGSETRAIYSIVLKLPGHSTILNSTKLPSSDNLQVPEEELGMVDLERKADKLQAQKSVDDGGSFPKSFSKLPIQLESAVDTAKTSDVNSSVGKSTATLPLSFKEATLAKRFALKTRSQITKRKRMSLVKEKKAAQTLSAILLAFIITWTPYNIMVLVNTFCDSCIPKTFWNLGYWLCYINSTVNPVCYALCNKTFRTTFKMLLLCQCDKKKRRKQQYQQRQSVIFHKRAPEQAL

SMILES	Emax [1, 5] [%]	EC50 [1] [µM]	Emax [2, 5] [%]	EC50 [2] [µM]	Emax [3, 5] [%]	EC50 [3] [µM]	Emax [4, 5] [%]	EC50 [4] [µM]	M1 Efficacy [1, 5]	M2 Efficacy [2, 5]	M3 Efficacy [3, 5]	M4 Efficacy [4, 5]
CCOC(=O)N1CCC(N2CCC3(CC2)C[C@H]2CC(=O)N(CCOC)[C@H]2c2ccccc23)CC1 [Compound 1]	25 to 100	< 2	25 to 100	< 2	< 25	> 5	25 to 100	< 2	–	–	–	–
CCOC(=O)N1CCC(N2CCC3(CC2)CC2CCOC2c2ccccc23)CC1 (stereo not shown) [Compound 2]	25 to 100	< 2	25 to 100	< 2	< 25	> 5	25 to 100	< 2	–	–	–	–
CN1C(=O)C[C@@H]2CC3(CCN(C4CC5CCC(C5)C4)CC3)c3ccccc3[C@@H]21 (stereo partly shown) [Compound 3]	–	< 2	–	< 2	–	> 5	–	< 2	++ (efficacy was calculated to be from 100% to 25%)	+ (efficacy was calculated to be less than 25%)	+ (efficacy was calculated to be less than 25%)	++ (efficacy was calculated to be from 100% to 25%)
CCOC(=O)N1CCC(N2CCC3(CC2)CC2CC(=O)OC2c2ccccc23)CC1 (stereo not shown) [Compound 4]	25 to 100	< 2	25 to 100	< 2	25 to 100	> 5	25 to 100	< 2	–	–	–	–
O=C1C[C@@H]2CC3(CCN(C4CC5CCC(C5)C4)CC3)c3ccccc3[C@@H]2N1 (stereo partly shown) [Compound 5]	25 to 100	< 2	25 to 100	< 2	< 25	> 5	25 to 100	< 2	–	–	–	–
c1ccc2c(c1)C1OCCC1CC21CCN(C2C[C@H]3CC[C@@H]2C3)CC1 (stereo partly shown) [Compound 6]	< 25	> 5	< 25	> 5	< 25	> 5	25 to 100	< 2	–	–	–	–
O=C1C[C@@H]2CC3(CCN(C4CCCCC4)CC3)c3ccccc3[C@@H]2N1 [Compound 7]	25 to 100	< 2	25 to 100	< 2	< 25	> 5	25 to 100	< 2	–	–	–	–
c1ccc2c(c1)C1OCCC1CC21CCN(C2CC3CCC(C3)C2)CC1 (stereo not shown) [Compound 8]	25 to 100	> 5	< 25	> 5	< 25	> 5	25 to 100	< 2	–	–	–	–
CCOC(=O)N1CCC(N2CCC3(CC2)C[C@H]2CC(=O)N[C@H]2c2ccccc23)CC1 [Compound 9]	25 to 100	< 2	25 to 100	< 2	25 to 100	< 2	25 to 100	< 2	–	–	–	–
CN1C(=O)C[C@@H]2CC3(CCN(C4CCCCCC4)CC3)c3ccccc3[C@@H]21 [Compound 10]	25 to 100	2 to 5	25 to 100	> 5	< 25	> 5	25 to 100	< 2	–	–	–	–
c1ccc2c(c1)C1OCCC1CC21CCN(C2CCCCCC2)CC1 (stereo not shown) [Compound 11]	25 to 100	2 to 5	< 25	> 5	< 25	> 5	25 to 100	< 2	–	–	–	–
